Experimental data as given in ChEMBL document CHEMBL1201862, “PubChem BioAssay data set” (2004).
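These data come from cells grown in 96-well plates and exposed to compound for 48 hours at five concentrations. Here, GI50 denotes the concentration required for 50% inhibition of growth.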 The source made the active and inactive calls. Cut-off read from the data, not from the text of the source: active = GI50 up to about 1.1 µM and inactive = higher.

Tests used:
Test in all cases: inhibition of tumour cell growth, NCI panel, 48 h
786-0 = system: 786-0
A498 = system: A498
A549 = system: A549
ACHN = system: ACHN
CCRF-CEM = system: CCRF-CEM
COLO 205 = system: COLO 205
DLD-1 = system: DLD-1
DMS-114 = system: DMS-114
DMS-273 = system: DMS-273
EKVX = system: EKVX
HCC 2998 = system: HCC 2998
HCT-116 = system: HCT-116
HCT-15 = system: HCT-15
HOP-18 = system: HOP-18
HOP-62 = system: HOP-62
HOP-92 = system: HOP-92
HT-29 = system: HT-29
IGROV-1 = system: IGROV-1
K562 = system: K562
KM-20L2 = system: KM-20L2
KM12 = system: KM12
LOX IMVI = system: LOX IMVI
LXFL 529 = system: LXFL 529
M14 = system: M14
M19-MEL = system: M19-MEL
MOLT-4 = system: MOLT-4
Malme-3M = system: Malme-3M
NCI-H226 = system: NCI-H226
NCI-H23 = system: NCI-H23
NCI-H460 = system: NCI-H460
NCI-H522 = system: NCI-H522
OVCAR-3 = system: OVCAR-3
OVCAR-4 = system: OVCAR-4
OVCAR-5 = system: OVCAR-5
OVCAR-8 = system: OVCAR-8
RPMI-8226 = system: RPMI-8226
RXF 393 = system: RXF 393
SF-268 = system: SF-268
SF-295 = system: SF-295
SF-539 = system: SF-539
SK-MEL-28 = system: SK-MEL-28
SK-MEL-2 = system: SK-MEL-2
SK-MEL-5 = system: SK-MEL-5
SK-OV-3 = system: SK-OV-3
SN12C = system: SN12C
SNB-19 = system: SNB-19
SNB-75 = system: SNB-75
SNB-78 = system: SNB-78
SW-620 = system: SW-620
TK-10 = system: TK-10
U-251 = system: U-251
UACC-257 = system: UACC-257
UACC-62 = system: UACC-62
UO-31 = system: UO-31
XF498 = system: XF498
CAKI-1 = system: CAKI-1
HL-60 = system: HL-60
MCF7 = system: MCF7
NCI/ADR-RES = system: NCI/ADR-RES

CC(=O)OCCOCNC(=S)N/N=C/c1ccc(Br)s1
GI50 (786-0): > 76.6 µM (inactive) | GI50 (A498): > 100 µM (inactive) | GI50 (A549): > 88.7 µM (inactive) | GI50 (ACHN): > 100 µM (inactive) | GI50 (CCRF-CEM): 3.74 µM (inactive) | GI50 (COLO 205): > 100 µM (inactive) | GI50 (DLD-1): > 81.8 µM (inactive) | GI50 (DMS-114): 33.3 µM (inactive) | GI50 (DMS-273): > 87.7 µM (inactive) | GI50 (EKVX): > 36.2 µM (inactive) | GI50 (HCC 2998): > 100 µM (inactive) | GI50 (HCT-116): 55 µM (inactive) | GI50 (HCT-15): > 100 µM | GI50 (HOP-18): > 100 µM (inactive) | GI50 (HOP-62): > 100 µM (inactive) | GI50 (HOP-92): > 100 µM (inactive) | GI50 (HT-29): > 100 µM (inactive) | GI50 (IGROV-1): > 100 µM (inactive) | GI50 (K562): > 20.8 µM (inactive) | GI50 (KM-20L2): > 100 µM (inactive) | GI50 (KM12): > 100 µM (inactive) | GI50 (LOX IMVI): 77.1 µM (inactive) | GI50 (LXFL 529): > 70.3 µM (inactive) | GI50 (M14): > 100 µM (inactive) | GI50 (M19-MEL): > 100 µM (inactive) | GI50 (MOLT-4): > 26.1 µM (inactive) | GI50 (Malme-3M): > 100 µM (inactive) | GI50 (NCI-H226): > 100 µM (inactive) | GI50 (NCI-H23): > 100 µM (inactive) | GI50 (NCI-H460): 78.3 µM (inactive) | GI50 (NCI-H522): 8.17 µM (inactive) | GI50 (OVCAR-3): > 89.1 µM (inactive) | GI50 (OVCAR-4): > 93.3 µM (inactive) | GI50 (OVCAR-5): > 100 µM (inactive) | GI50 (OVCAR-8): > 100 µM (inactive) | GI50 (RPMI-8226): 5.08 µM (inactive) | GI50 (RXF 393): > 100 µM (inactive) | GI50 (SF-268): > 100 µM (inactive) | GI50 (SF-295): > 76 µM (inactive) | GI50 (SF-539): > 100 µM (inactive) | GI50 (SK-MEL-28): > 100 µM (inactive) | GI50 (SK-MEL-2): > 100 µM (inactive) | GI50 (SK-MEL-5): > 100 µM (inactive) | GI50 (SK-OV-3): > 100 µM (inactive) | GI50 (SN12C): > 100 µM (inactive) | GI50 (SNB-19): > 100 µM (inactive) | GI50 (SNB-75): > 100 µM (inactive) | GI50 (SNB-78): > 100 µM (inactive) | GI50 (SW-620): > 100 µM (inactive) | GI50 (TK-10): > 100 µM (inactive) | GI50 (U-251): > 95.3 µM (inactive) | GI50 (UACC-257): > 100 µM (inactive) | GI50 (UACC-62): > 100 µM (inactive) | GI50 (UO-31): > 100 µM (inactive) | GI50 (XF498): > 100 µM (inactive)

CC(=O)/C=C/c1c[nH]c(=O)[nH]c1=O
GI50 (A498): 214 µM (inactive) | GI50 (A549): 305 µM (inactive) | GI50 (CAKI-1): 74.3 µM (inactive) | GI50 (CCRF-CEM): 92 µM (inactive) | GI50 (COLO 205): 154 µM (inactive) | GI50 (DLD-1): 179 µM (inactive) | GI50 (DMS-114): 242 µM (inactive) | GI50 (DMS-273): 89.1 µM (inactive) | GI50 (EKVX): 239 µM (inactive) | GI50 (HCC 2998): 236 µM (inactive) | GI50 (HCT-116): 128 µM (inactive) | GI50 (HCT-15): 210 µM | GI50 (HL-60): 97.9 µM (inactive) | GI50 (HOP-18): 155 µM (inactive) | GI50 (HOP-62): 303 µM (inactive) | GI50 (HOP-92): 8.13 µM (inactive) | GI50 (HT-29): 420 µM (inactive) | GI50 (IGROV-1): 151 µM (inactive) | GI50 (K562): 229 µM (inactive) | GI50 (KM-20L2): 213 µM (inactive) | GI50 (KM12): 187 µM (inactive) | GI50 (LOX IMVI): 97.5 µM (inactive) | GI50 (M19-MEL): 390 µM (inactive) | GI50 (MCF7): 157 µM (inactive) | GI50 (MOLT-4): 179 µM (inactive) | GI50 (Malme-3M): 243 µM (inactive) | GI50 (NCI-H226): 204 µM (inactive) | GI50 (NCI-H23): 257 µM (inactive) | GI50 (NCI-H460): 186 µM (inactive) | GI50 (NCI-H522): 94.4 µM (inactive) | GI50 (NCI/ADR-RES): 151 µM (inactive) | GI50 (OVCAR-3): 180 µM (inactive) | GI50 (OVCAR-4): 508 µM (inactive) | GI50 (OVCAR-5): 303 µM (inactive) | GI50 (OVCAR-8): 241 µM (inactive) | GI50 (RPMI-8226): 129 µM (inactive) | GI50 (RXF 393): 126 µM (inactive) | GI50 (SF-268): 168 µM (inactive) | GI50 (SF-295): 304 µM (inactive) | GI50 (SF-539): 214 µM (inactive) | GI50 (SK-MEL-28): 190 µM (inactive) | GI50 (SK-MEL-2): 197 µM (inactive) | GI50 (SK-MEL-5): 271 µM (inactive) | GI50 (SK-OV-3): 166 µM (inactive) | GI50 (SN12C): 142 µM (inactive) | GI50 (SNB-19): 295 µM (inactive) | GI50 (SNB-75): 217 µM (inactive) | GI50 (SNB-78): 159 µM (inactive) | GI50 (SW-620): 223 µM (inactive) | GI50 (U-251): 151 µM (inactive) | GI50 (UACC-257): 265 µM (inactive) | GI50 (UACC-62): 236 µM (inactive) | GI50 (UO-31): 130 µM (inactive) | GI50 (XF498): 38.4 µM (inactive)
